Laboratory results as given in US4297346A, “Pseudopeptides used as medicaments” (priority 1976, dated 1981).

How the values were obtained:
mouse [1] = experiment: Study of the toxicity in the mouse; assay type: in vivo
Experimental: study of the toxicity in the mouse.
(§1) A comparison of these three substances, pGlu-Amph, pGlu-His-Amph and pGlu-His-Pro-Amph, with amphetamine, has been able to be carried out as follows; for this purpose, the products were administered systematically by intraperitoneal route and by oral route, it being possible for this latter procedure to verify the generally admitted assertion of a gastric hydrolysis of peptides; in this case, the action of the amphetamine should be integrally re-established.

rat = experiment: Induction of stereotype movements in the rat; assay type: in vivo
Experimental: induction of stereotypes in the rat,
as §1
B--Induction of stereotype movements

mouse [2] = experiment: Action on the rectal temperature in the mouse (amphetamic pseudopeptides); assay type: in vivo; conditions: for dose causing a hypothermia 30 minutes after injection: small doses
Experimental: action on the rectal temperature in the mouse.
as §1
A--Action on the rectal temperature in respect of the mouse

mouse [3] = experiment: Jumping effects with L-DOPA in mice which have received d-amphetamine; assay type: in vivo; conditions: for jumping effects (in words): counted for 90 minutes, L-DOPA 100 mg/kg intraperitoneally
Experimental: (§2) The different tests which are carried out on mice by the known techniques comprise:
the jerking movements with L-DOPA.
(4) Jumping effects with L-DOPA

mouse [4] = experiment: Potentialisation of the group toxicity to amphetamine; assay type: in vivo
Experimental: as §2
the potentialisation of the group toxicity to amphetamine,
(3) Group toxicity in respect of amphetamine

mouse [5] = experiment: Action on the rectal temperature of the mouse (pGlu-His-dopamine); assay type: in vivo
Experimental: as §2
the action on the rectal temperature of the mouse,
(1) Action on the rectal temperature

mouse [6] = experiment: Anti-reserpine action (interaction with reserpine); assay type: in vivo
Experimental: as §2
the anti-reserpine action,
(2) Interaction with reserpine

[7] = Potentialisation of the toxicity of amphetamine by TRH; assay type: in vivo
[8] = in vivo
tryptophane hydroxylase = conditions: 4-nitro-amphetamine: in 4 hours, still perceptive two weeks later; cited from earlier work
serotonin = conditions: 4-nitro-amphetamine: in 4 hours, still perceptive two weeks later; cited from earlier work
[9] = intraperitoneal route, 400 mg/kg
[10] = intraperitoneal route, 600 mg/kg

Compound: CC(Cc1ccccc1)NC(=O)[C@@H]1CCCN1C(=O)[C@H](Cc1c[nH]cn1)NC(=O)[C@@H]1CCC(=O)N1 (stereo partly drawn) [pGlu-His-Pro-Amph, pGlu--His--Pro--Amph]
- mortality (mouse [1]; oral route, 1000 mg/kg): 25%
- time to death (mouse [1]; oral route, 1000 mg/kg): 48 h

Compound: CC(Cc1ccccc1)NC(=O)C1CCC(=O)N1 (centres unmarked) [pGlu-Amph, pGlu--Amph]
- dosage causing mortality of 50% (LD50) (mouse [1]; intraperitoneal route): about 40 mg/kg
- signs observed with toxic dosages (mouse [1]; intraperitoneal route): general syndrome of excitation
- mortality (in words) (mouse [1]; oral route, 30 mg/kg): does not cause any death
- mortality (mouse [1]; oral route, 100 mg/kg): 100%
- induction of stereotype movements (in words) (rat; intraperitoneal route): completely identical with that of amphetamine
- effect versus that produced by the equivalent amphetamine dose (rat; intraperitoneal route, dose transformed into contained amphetamine): almost identical or is slightly smaller
- doses versus doses of amphetamine producing a similar/equivalent effect (rat; oral route): practically equivalent
- action on the rectal temperature (in words) (mouse [2]; intraperitoneal route): very close to that of amphetamine
- dose from which a hyperthermia appears (mouse [2]; intraperitoneal route): ≥ 10 mg/kg
- period of the action compared with amphetamine (mouse [2]; intraperitoneal route): the same
- time of the maximum of the hyperthermia (mouse [2]; intraperitoneal route): 1 h
- dose causing a hypothermia 30 minutes after injection (mouse [2]; intraperitoneal route): 5 mg/kg
- action on the rectal temperature (in words) (mouse [2]; oral route): modelled on that of the amphetamine

Compound: NCCc1ccc(O)c(O)c1 [Dopamine, dopamine]
- jumping effects (in words) (mouse [3]): no jumping effects are produced
- time after the injection of amphetamine at which the effect is developed (mouse [4]): about 20 minutes
- action on the rectal temperature (in words) (mouse [5]): hypothermal action, but the amplitude thereof is much smaller
- effect on the reserpine fall in temperature (mouse [6]): small effect
- effect on reserpine ptosis (mouse [6]; effect not lasting): completely counteracts ptosis

Compound: CC(N)Cc1ccccc1 (centres unmarked) [amphetamine, reference compound]
- signs observed with toxic dosages (mouse [1]; intraperitoneal route): general syndrome of excitation
- dosage at which the maximum amplitude of stereotype movements is achieved (rat; intraperitoneal route): 10 mg/kg
- induction of stereotype movements (in words) (rat; intraperitoneal route): causes stereotype movements
- duration of the stereotype movements (rat; intraperitoneal route, 10 mg/kg): ≤ 5 h
- induction of stereotype movements (in words) (rat; oral route): less significant intensity and of slightly longer duration than by the intraperitoneal route
- LD50 of amphetamine ([7]; amphetamine alone): 17.8 mg/kg
- LD50 of amphetamine ([7]; with TRH at 25 mg/kg by subcutaneous application): 5.7 mg/kg
- dose from which a hyperthermia appears (mouse [2]; intraperitoneal route): ≥ 4 mg/kg
- time after which the temperature of the treated animals is again that of the controls (mouse [2]; intraperitoneal route): 2 h
- time of the maximum of the hyperthermia (mouse [2]; intraperitoneal route): 0.5 h
- dose causing a hypothermia 30 minutes after injection (mouse [2]; intraperitoneal route): 1 mg/kg
- action on the rectal temperature (in words) (mouse [2]; oral route): substantially the same as when applied intraperitoneally
- dose still causing a hypothermia (mouse [2]; oral route): 4 mg/kg

Compound: pGlu--His--DA [pGlu-His-dopamine]
- time of onset of the antioxotremorine action [8]: 15 min
- delay in the occurrence of the jumping effects versus L-DOPA (mouse [3]): greater
- total number of jumps recorded versus L-DOPA (mouse [3]): smaller than that with L-DOPA
- jumping effects (in words) (mouse [3]): the same as with L-DOPA
- behavioural effect in amphetamine group toxicity test (in words) (mouse [4]): identical with those of dopamine
- action on the rectal temperature (in words) (mouse [5]): highly significant hypothermia
- time of occurrence of the hypothermia (mouse [5]; relatively high dosage): 15 min
- action on the effects of reserpine (temperature, ptosis) (mouse [6]; 400 mg/kg intraperitoneally): slightly counteracts simultaneously the ptosis and the fall in temperature
- duration of the anti-reserpine action (mouse [6]; 400 mg/kg intraperitoneally): less than 11/2

Compound: CC(N)Cc1ccc([N+](=O)[O-])cc1 (centres unmarked) [4-nitro-amphetamine, p-nitro-amphetamine]
- effect on the activity of the tryptophane hydroxylase (tryptophane hydroxylase): decrease in the activity of the tryptophane hydroxylase
- effect on the amount of serotonin (serotonin): depletion of serotonin

Compound: N[C@@H](Cc1ccc(O)c(O)c1)C(=O)O [L-DOPA]
- jumping effects (in words) (mouse [3]): numerous jumping actions
- behavioural effect in amphetamine group toxicity test (in words) (mouse [4]): extreme agitation
- action on the rectal temperature (in words) (mouse [5]): hypothermia
- action on the effects of reserpine (temperature, ptosis) (mouse [6]; 400 mg/kg intraperitoneally): antagonises the effects of the reserpine on the temperature and the dropping of the eyelids
- action on the effects of reserpine (mouse [6]; oral administration, same dosage (400 mg/kg)): not found

Compound: pGlu--His--Amph [pGlu-His-Amph]
- toxicity versus amphetamine (summary) (mouse [1]; in vivo): less than that of amphetamine
- mortality (mouse [1]; [9]): 10%
- time after which agitation is established (mouse [1]; [9]): 30 min
- dead mice (mouse [1]; [10]): 6 mice out of 10
- time to death (mouse [1]; [10]): less than 30 minutes
- time to death (mouse [1]; intraperitoneal route, 800 mg/kg): less than 3 min
- duration of stereotypic movements observed in the toxicity study (mouse [1]; oral route): more than 24 hours
- mice dead (mouse [1]; oral route, 2400 mg/kg): 50%
- immediate death (mouse [1]; oral route, even with 2400 mg/kg): no longer observed
- duration of action in the stereotyped movements test versus amphetamine (summary) (rat; in vivo): much longer lasting action
- dosage of contained amphetamine versus dosage of amphetamine causing an equal intensity of stereotypes (rat; intraperitoneal route): three times greater
- induction of stereotype movements (in words) (rat; intraperitoneal route): also causes stereotypes
- duration of the stereotype movements (rat; intraperitoneal route, strongest dosage): exceeds 7 hours
- duration of the stereotyped movements (rat; oral route): 271/2
- induction of stereotype movements (in words) (rat; oral route): much greater effect as regards intensity and duration than when applied intraperitoneally
- time the action takes to appear (rat; oral route): about 3 hours
- time of the maximum of the hypothermia (mouse [2]; intraperitoneal administration): 1 h
- action on the rectal temperature (in words) (mouse [2]; intraperitoneal route): always produces a hypothermia
- dose from which a hyperthermia appears (mouse [2]; intraperitoneal route): above 50 mg/kg
- time of the maximum of the hyperthermia (mouse [2]; intraperitoneal route): approximately 3 hours
- action on the rectal temperature (in words) (mouse [2]; oral route): always causes a hypothermia followed by a hyperthermia proportional to the administered dose
- time of the maximum of the hypothermia (mouse [2]; oral route): 2 h

Compound: NC(=O)[C@@H]1CCCN1C(=O)[C@H](Cc1cnc[nH]1)NC(=O)[C@@H]1CCC(=O)N1 [TRH, pGlu-His-Pro-NH2]
- effect on the toxicity of amphetamine ([7]; 25 mg/kg, subcutaneous application): potentialises the toxicity of the amphetamine

Compound: CC(N)Cc1ccc(N)cc1 (centres unmarked) [4-amino-amphetamine, p-amino-amphetamine]
- effect on the activity of the tryptophane hydroxylase (tryptophane hydroxylase): not modified to any appreciable degree
- effect on the amount of serotonin (serotonin): increase in the amount of serotonin
